By MIC is commonly meant the lowest concentration found to suppress growth.

Holding throughout (assay type): functional
Assay [1] has as its system Streptococcus pneumoniae. Description: Antimicrobial activity against erythromycin-resistant Streptococcus pneumoniae AB11 expressing the erm and mef gene by broth microdilution method. In general terms: In broth dilution the organism is exposed to a series of concentrations in liquid medium.
In assay [2] the test system is Streptococcus pneumoniae. Description: Antimicrobial activity against erythromycin-resistant Streptococcus pneumoniae B1 expressing the erm gene by broth microdilution method.
Assay [3] relates to Staphylococcus aureus. Description: Antimicrobial activity against erythromycin-susceptible Staphylococcus aureus ATCC 25923 by broth microdilution method.
In assay [4] the test system is Streptococcus pneumoniae. Description: Antimicrobial activity against erythromycin-resistant Streptococcus pneumoniae A22072 expressing the mef gene by broth microdilution method.
Assay [5] relates to Streptococcus pyogenes. Description: Antimicrobial activity against erythromycin-resistant Streptococcus pyogenes R2 by broth microdilution method.
The subject of assay [6] is Streptococcus pyogenes. Description: Antimicrobial activity against erythromycin-susceptible Streptococcus pyogenes S2 by broth microdilution method.
The test system of assay [7] is Staphylococcus aureus. Description: Antimicrobial activity against penicillin-susceptible Staphylococcus aureus P1 by broth microdilution method.
The test system of assay [8] is Streptococcus pneumoniae. Description: Antimicrobial activity against erythromycin-susceptible Streptococcus pneumoniae ATCC 49619 by broth microdilution method.

≈ marks a conversion by molar mass, not a printed value.

For the molecule `CC[C@H]1OC(=O)[C@H](C)[C@@H](O[C@H]2C[C@@](C)(OC)[C@@H](OC(=O)NCc3ccccc3)[C@H](C)O2)[C@H](C)[C@@H](O[C@@H]2O[C@H](C)C[C@H](N(C)C)[C@H]2O)[C@](C)(OC)C[C@@H](C)C(=O)[C@H](C)[C@@H](O)[C@]1(C)O`, the MIC in the assay on Streptococcus pneumoniae [1] turned out to be 8 µg/mL (≈ 9.08 µM); in the assay with Streptococcus pneumoniae [2], 4 µg/mL (≈ 4.54 µM); against Staphylococcus aureus [3], 0.25 µg/mL (≈ 0.284 µM); against Streptococcus pneumoniae [4], 0.25 µg/mL (≈ 0.284 µM); in the assay on Streptococcus pyogenes [5], 16 µg/mL (≈ 18.2 µM); in the assay on Streptococcus pyogenes [6] it was 0.12 µg/mL (≈ 0.136 µM). In addition, the MIC in the assay on Staphylococcus aureus [7] is 1 µg/mL (≈ 1.13 µM); with Streptococcus pneumoniae [8], 0.25 µg/mL (≈ 0.284 µM).
On to `CC[C@H]1OC(=O)[C@H](C)[C@@H](O[C@H]2C[C@@](C)(OC)[C@@H](OC(=O)NCc3ccc(F)cc3)[C@H](C)O2)[C@H](C)[C@@H](O[C@@H]2O[C@H](C)C[C@H](N(C)C)[C@H]2O)[C@](C)(OC)C[C@@H](C)C(=O)[C@H](C)[C@@H](O)[C@]1(C)O`, for which the MIC in the assay with Streptococcus pneumoniae [1] was determined as 8 µg/mL (≈ 8.9 µM); in the assay with Streptococcus pneumoniae [2] it was 4 µg/mL (≈ 4.45 µM); in the assay with Staphylococcus aureus [3], 0.12 µg/mL (≈ 0.133 µM); against Streptococcus pneumoniae [4], 0.5 µg/mL (≈ 0.556 µM); with Streptococcus pyogenes [5] it was 0.5 µg/mL (≈ 0.556 µM); against Streptococcus pyogenes [6], 0.03 µg/mL (≈ 0.0334 µM). The MIC against Staphylococcus aureus [7] was found to be 2 µg/mL (≈ 2.22 µM); in the assay on Streptococcus pneumoniae [8], 0.06 µg/mL (≈ 0.0667 µM).
Consider `CC[C@H]1OC(=O)[C@H](C)[C@@H](O[C@H]2C[C@@](C)(OC)[C@@H](OC(=O)NCc3ccc(OC)cc3)[C@H](C)O2)[C@H](C)[C@@H](O[C@@H]2O[C@H](C)C[C@H](N(C)C)[C@H]2O)[C@](C)(OC)C[C@@H](C)C(=O)[C@H](C)[C@@H](O)[C@]1(C)O`, for which the minimal inhibitory concentration (MIC) in the assay on Streptococcus pneumoniae [1] was found to be 32 µg/mL (≈ 35.1 µM); with Streptococcus pneumoniae [2], 16 µg/mL (≈ 17.6 µM); in the assay with Staphylococcus aureus [3] it was 0.12 µg/mL (≈ 0.132 µM); with Streptococcus pneumoniae [4] it was 0.25 µg/mL (≈ 0.274 µM); in the assay with Streptococcus pyogenes [5], 0.12 µg/mL (≈ 0.132 µM); against Streptococcus pyogenes [6] it was 0.03 µg/mL (≈ 0.0329 µM). The MIC in the assay on Staphylococcus aureus [7] worked out at 8 µg/mL (≈ 8.78 µM); in the assay on Streptococcus pneumoniae [8] it was 0.03 µg/mL (≈ 0.0329 µM).
`CC[C@H]1OC(=O)[C@H](C)[C@@H](O[C@H]2C[C@@](C)(OC)[C@@H](OC(=O)NCCc3ccccc3)[C@H](C)O2)[C@H](C)[C@@H](O[C@@H]2O[C@H](C)C[C@H](N(C)C)[C@H]2O)[C@](C)(OC)C[C@@H](C)C(=O)[C@H](C)[C@@H](O)[C@]1(C)O`: the MIC against Streptococcus pneumoniae [1] worked out at 64 µg/mL (≈ 71.5 µM); against Streptococcus pneumoniae [2], 16 µg/mL (≈ 17.9 µM); in the assay with Staphylococcus aureus [3] it was 0.12 µg/mL (≈ 0.134 µM); against Streptococcus pneumoniae [4], 1 µg/mL (≈ 1.12 µM); in the assay with Streptococcus pyogenes [5], 0.25 µg/mL (≈ 0.279 µM); in the assay on Streptococcus pyogenes [6], 0.03 µg/mL (≈ 0.0335 µM). Besides, the values for the MIC against Staphylococcus aureus [7] and in the assay on Streptococcus pneumoniae [8] were 0.06 µg/mL (≈ 0.067 µM) and 0.03 µg/mL (≈ 0.0335 µM), respectively.
As to `C=CCNC(=O)O[C@H]1[C@H](C)O[C@@H](O[C@H]2[C@H](C)[C@@H](O[C@@H]3O[C@H](C)C[C@H](N(C)C)[C@H]3O)[C@](C)(OC)C[C@@H](C)C(=O)[C@H](C)[C@@H](O)[C@](C)(O)[C@@H](CC)OC(=O)[C@@H]2C)C[C@@]1(C)OC`, the minimum inhibitory concentration (MIC) turned out to be 0.25 µg/mL (≈ 0.301 µM) in the assay with Staphylococcus aureus [3], 0.03 µg/mL (≈ 0.0361 µM) with Streptococcus pyogenes [6], 32 µg/mL (≈ 38.5 µM) in the assay with Staphylococcus aureus [7] and 0.25 µg/mL (≈ 0.301 µM) against Streptococcus pneumoniae [8].
For the molecule `C=CCNC(=O)CCCNC(=O)O[C@H]1[C@H](C)O[C@@H](O[C@H]2[C@H](C)[C@@H](O[C@@H]3O[C@H](C)C[C@H](N(C)C)[C@H]3O)[C@](C)(OC)C[C@@H](C)C(=O)[C@H](C)[C@@H](O)[C@](C)(O)[C@@H](CC)OC(=O)[C@@H]2C)C[C@@]1(C)OC`, the minimal inhibitory concentration (MIC) in the assay on Staphylococcus aureus [3] came out at 0.25 µg/mL (≈ 0.273 µM); with Streptococcus pyogenes [6], 0.03 µg/mL (≈ 0.0327 µM); in the assay on Staphylococcus aureus [7], 8 µg/mL (≈ 8.73 µM); against Streptococcus pneumoniae [8], 0.03 µg/mL (≈ 0.0327 µM).
For the molecule `C=CCNC(=O)CCCCCNC(=O)O[C@H]1[C@H](C)O[C@@H](O[C@H]2[C@H](C)[C@@H](O[C@@H]3O[C@H](C)C[C@H](N(C)C)[C@H]3O)[C@](C)(OC)C[C@@H](C)C(=O)[C@H](C)[C@@H](O)[C@](C)(O)[C@@H](CC)OC(=O)[C@@H]2C)C[C@@]1(C)OC`, the MIC with Staphylococcus aureus [3] amounted to 0.25 µg/mL (≈ 0.265 µM); with Streptococcus pyogenes [6], 0.5 µg/mL (≈ 0.53 µM); against Staphylococcus aureus [7], 16 µg/mL (≈ 16.9 µM); in the assay on Streptococcus pneumoniae [8], 0.03 µg/mL (≈ 0.0318 µM).
